Test results from ChEMBL document CHEMBL1275550, “In vitro activity of doripenem, a carbapenem for the treatment of challenging infections caused by gram-negative bacteria, against recent clinical isolates from the United States” (2008).
In brackets after ≈: the same amount, converted by molar mass.

Experiments:
Enterobacteriaceae [1] = assay: Antimicrobial activity against Ceftazidime non-susceptible Enterobacteriaceae by broth microdilution method; format: functional
Enterobacteriaceae [2] = assay: Antimicrobial activity against ceftazidime-susceptible Enterobacteriaceae assessed as susceptible isolate by broth microdilution method; format: functional
Enterobacteriaceae [3] = assay: Antimicrobial activity against ceftazidime-susceptible Enterobacteriaceae assessed as intermediate isolate by broth microdilution method; format: functional
Enterobacteriaceae [4] = assay: Antimicrobial activity against ceftazidime-susceptible Enterobacteriaceae assessed as resistant isolate by broth microdilution method; format: functional
Enterobacteriaceae [5] = assay: Antimicrobial activity against Ceftazidime non-susceptible Enterobacteriaceae assessed as susceptible isolate by broth microdilution method; format: functional
Enterobacteriaceae [6] = assay: Antimicrobial activity against Ceftazidime non-susceptible Enterobacteriaceae assessed as intermediate isolate by broth microdilution method; format: functional
Enterobacteriaceae [7] = assay: Antimicrobial activity against Ceftazidime non-susceptible Enterobacteriaceae assessed as resistant isolate by broth microdilution method; format: functional
Escherichia coli [8] = assay: Antimicrobial activity against ESBL producing Escherichia coli by broth microdilution method; format: functional
Escherichia coli [9] = assay: Antimicrobial activity against Non-ESBL Escherichia coli assessed as susceptible isolate by broth microdilution method; format: functional
Escherichia coli [10] = assay: Antimicrobial activity against Non-ESBL Escherichia coli assessed as intermediate isolate by broth microdilution method; format: functional
Escherichia coli [11] = assay: Antimicrobial activity against ESBL producing Escherichia coli assessed as susceptible isolate by broth microdilution method; format: functional
Escherichia coli [12] = assay: Antimicrobial activity against ESBL producing Escherichia coli assessed as intermediate isolate by broth microdilution method; format: functional
Escherichia coli [13] = assay: Antimicrobial activity against ESBL producing Escherichia coli assessed as resistant isolate by broth microdilution method; format: functional
Klebsiella pneumoniae [14] = assay: Antimicrobial activity against Non-ESBL Klebsiella pneumoniae by broth microdilution method; format: functional
Klebsiella pneumoniae [15] = assay: Antimicrobial activity against ESBL producing Klebsiella pneumoniae by broth microdilution method; format: functional
Klebsiella pneumoniae [16] = assay: Antimicrobial activity against Non-ESBL Klebsiella pneumoniae assessed as susceptible isolate by broth microdilution method; format: functional
Klebsiella pneumoniae [17] = assay: Antimicrobial activity against Non-ESBL Klebsiella pneumoniae assessed as intermediate isolate by broth microdilution method; format: functional
Klebsiella pneumoniae [18] = assay: Antimicrobial activity against ESBL producing Klebsiella pneumoniae assessed as susceptible isolate by broth microdilution method; format: functional
Klebsiella pneumoniae [19] = assay: Antimicrobial activity against ESBL producing Klebsiella pneumoniae assessed as intermediate isolate by broth microdilution method; format: functional
Klebsiella pneumoniae [20] = assay: Antimicrobial activity against ESBL producing Klebsiella pneumoniae assessed as resistant isolate by broth microdilution method; format: functional
Proteus mirabilis [21] = assay: Antimicrobial activity against Non-ESBL Proteus mirabilis by broth microdilution method; format: functional
Proteus mirabilis [22] = assay: Antimicrobial activity against ESBL producing Proteus mirabilis by broth microdilution method; format: functional
Pseudomonas aeruginosa [23] = assay: Antimicrobial activity against Pseudomonas aeruginosa isolated from non-ICU patient by broth microdilution method; format: functional
Pseudomonas aeruginosa [24] = assay: Antimicrobial activity against Pseudomonas aeruginosa isolated from ICU patient by broth microdilution method; format: functional
Proteus mirabilis [25] = assay: Antimicrobial activity against Non-ESBL Proteus mirabilis assessed as susceptible isolate by broth microdilution method; format: functional
Proteus mirabilis [26] = assay: Antimicrobial activity against Non-ESBL Proteus mirabilis assessed as intermediate isolate by broth microdilution method; format: functional
Proteus mirabilis [27] = assay: Antimicrobial activity against ESBL producing Proteus mirabilis assessed as susceptible isolate by broth microdilution method; format: functional
Proteus mirabilis [28] = assay: Antimicrobial activity against ESBL producing Proteus mirabilis assessed as intermediate isolate by broth microdilution method; format: functional
Citrobacter [29] = assay: Antimicrobial activity against Citrobacter with nonderepressed AmpC beta-lactamsae by broth microdilution method; format: functional
Citrobacter [30] = assay: Antimicrobial activity against Citrobacter with derepressed AmpC beta-lactamsae by broth microdilution method; format: functional
Citrobacter [31] = assay: Antimicrobial activity against Citrobacter with nonderepressed AmpC beta-lactamsae assessed as susceptible isolate by broth microdilution method; format: functional
Citrobacter [32] = assay: Antimicrobial activity against Citrobacter with nonderepressed AmpC beta-lactamsae assessed as intermediate isolate by broth microdilution method; format: functional
Citrobacter [33] = assay: Antimicrobial activity against Citrobacter with derepressed AmpC beta-lactamsae assessed as susceptible isolate by broth microdilution method; format: functional
Citrobacter [34] = assay: Antimicrobial activity against Citrobacter with derepressed AmpC beta-lactamsae assessed as intermediate isolate by broth microdilution method; format: functional
Serratia marcescens [35] = assay: Antimicrobial activity against Ceftazidime non-susceptible Serratia marcescens by broth microdilution method; format: functional
Serratia marcescens [36] = assay: Antimicrobial activity against Ceftazidime susceptible Serratia marcescens assessed as susceptible isolate by broth microdilution method; format: functional
Serratia marcescens [37] = assay: Antimicrobial activity against Ceftazidime susceptible Serratia marcescens assessed as intermediate isolate by broth microdilution method; format: functional
Serratia marcescens [38] = assay: Antimicrobial activity against Ceftazidime non-susceptible Serratia marcescens assessed as susceptible isolate by broth microdilution method; format: functional
Serratia marcescens [39] = assay: Antimicrobial activity against Ceftazidime non-susceptible Serratia marcescens assessed as intermediate isolate by broth microdilution method; format: functional
Pseudomonas aeruginosa [40] = assay: Antimicrobial activity against Ceftazidime susceptible Pseudomonas aeruginosa by broth microdilution method; format: functional
Pseudomonas aeruginosa [41] = assay: Antimicrobial activity against imipenem non-susceptible Pseudomonas aeruginosa by broth microdilution method; format: functional
Pseudomonas aeruginosa [42] = assay: Antimicrobial activity against Ceftazidime susceptible Pseudomonas aeruginosa assessed as susceptible isolate by broth microdilution method; format: functional
Pseudomonas aeruginosa [43] = assay: Antimicrobial activity against Ceftazidime susceptible Pseudomonas aeruginosa assessed as intermediate isolate by broth microdilution method; format: functional
Pseudomonas aeruginosa [44] = assay: Antimicrobial activity against Ceftazidime susceptible Pseudomonas aeruginosa assessed as resistant isolate by broth microdilution method; format: functional
Pseudomonas aeruginosa [45] = assay: Antimicrobial activity against Ceftazidime non-susceptible Pseudomonas aeruginosa assessed as susceptible isolate by broth microdilution method; format: functional
Pseudomonas aeruginosa [46] = assay: Antimicrobial activity against Ceftazidime non-susceptible Pseudomonas aeruginosa assessed as intermediate isolate by broth microdilution method; format: functional
Pseudomonas aeruginosa [47] = assay: Antimicrobial activity against Ceftazidime non-susceptible Pseudomonas aeruginosa assessed as resistant isolate by broth microdilution method; format: functional
Pseudomonas aeruginosa [48] = assay: Antimicrobial activity against imipenem susceptible Pseudomonas aeruginosa assessed as susceptible isolate by broth microdilution method; format: functional
Pseudomonas aeruginosa [49] = assay: Antimicrobial activity against imipenem susceptible Pseudomonas aeruginosa assessed as intermediate isolate by broth microdilution method; format: functional
Pseudomonas aeruginosa [50] = assay: Antimicrobial activity against imipenem susceptible Pseudomonas aeruginosa assessed as resistant isolate by broth microdilution method; format: functional
Pseudomonas aeruginosa [51] = assay: Antimicrobial activity against imipenem non-susceptible Pseudomonas aeruginosa assessed as susceptible isolate by broth microdilution method; format: functional
Pseudomonas aeruginosa [52] = assay: Antimicrobial activity against imipenem non-susceptible Pseudomonas aeruginosa assessed as intermediate isolate by broth microdilution method; format: functional
Pseudomonas aeruginosa [53] = assay: Antimicrobial activity against imipenem non-susceptible Pseudomonas aeruginosa assessed as resistant isolate by broth microdilution method; format: functional
Acinetobacter [54] = assay: Antimicrobial activity against imipenem susceptible Acinetobacter by broth microdilution method; format: functional
Acinetobacter [55] = assay: Antimicrobial activity against imipenem non-susceptible Acinetobacter by broth microdilution method; format: functional
Acinetobacter [56] = assay: Antimicrobial activity against imipenem susceptible Acinetobacter assessed as susceptible isolate by broth microdilution method; format: functional
Acinetobacter [57] = assay: Antimicrobial activity against imipenem susceptible Acinetobacter assessed as intermediate isolate by broth microdilution method; format: functional
Acinetobacter [58] = assay: Antimicrobial activity against imipenem susceptible Acinetobacter assessed as resistant isolate by broth microdilution method; format: functional
Acinetobacter [59] = assay: Antimicrobial activity against imipenem non-susceptible Acinetobacter assessed as susceptible isolate by broth microdilution method; format: functional
Acinetobacter [60] = assay: Antimicrobial activity against imipenem non-susceptible Acinetobacter assessed as intermediate isolate by broth microdilution method; format: functional
Acinetobacter [61] = assay: Antimicrobial activity against imipenem non-susceptible Acinetobacter assessed as resistant isolate by broth microdilution method; format: functional
Pseudomonas aeruginosa [62] = assay: Antimicrobial activity against Pseudomonas aeruginosa isolated from patient by broth microdilution method
Pseudomonas aeruginosa [63] = assay: Antimicrobial activity against Pseudomonas aeruginosa isolated from non-ICU patient by broth microdilution method
Pseudomonas aeruginosa [64] = assay: Antimicrobial activity against Pseudomonas aeruginosa isolated from ICU patient assessed as resistant isolate by broth microdilution method
Pseudomonas aeruginosa [65] = assay: Antimicrobial activity against Pseudomonas aeruginosa isolated from ICU patient assessed as susceptible isolate by broth microdilution method
Pseudomonas aeruginosa [66] = assay: Antimicrobial activity against Pseudomonas aeruginosa isolated from ICU patient assessed as intermediate isolate by broth microdilution method
Pseudomonas aeruginosa [67] = assay: Antimicrobial activity against Pseudomonas aeruginosa isolated from non-ICU patient assessed as resistant isolate by broth microdilution method

CO/N=C(\C(=O)N[C@@H]1C(=O)N2C(C(=O)[O-])=C(C[N+]3(C)CCCC3)CS[C@H]12)c1csc(N)n1
MIC50 (Enterobacteriaceae [1]): 2 µg/mL (≈ 4.16 µM) | MIC90 (Enterobacteriaceae [1]): 32 µg/mL (≈ 66.6 µM) | Activity (Enterobacteriaceae [2]): 99.8% | Activity (Enterobacteriaceae [3]): 0% | Activity (Enterobacteriaceae [4]): 0.1% | Activity (Enterobacteriaceae [5]): 82.4% | Activity (Enterobacteriaceae [6]): 5.6% | Activity (Enterobacteriaceae [7]): 12% | MIC50 (Escherichia coli [8]): 32 µg/mL (≈ 66.6 µM) | MIC90 (Escherichia coli [8]): > 32 µg/mL | Activity (Escherichia coli [9]): 99.8% | Activity (Escherichia coli [10]): 0.1% | Activity (Escherichia coli [11]): 40% | Activity (Escherichia coli [12]): 3.3% | Activity (Escherichia coli [13]): 56.7% | MIC50 (Klebsiella pneumoniae [14]): 0.03 µg/mL (≈ 0.0624 µM) | MIC90 (Klebsiella pneumoniae [14]): 0.06 µg/mL (≈ 0.125 µM) | MIC50 (Klebsiella pneumoniae [15]): 8 µg/mL (≈ 16.6 µM) | MIC90 (Klebsiella pneumoniae [15]): > 32 µg/mL | Activity (Klebsiella pneumoniae [16]): 99.7% | Activity (Klebsiella pneumoniae [17]): 0.2% | Activity (Klebsiella pneumoniae [18]): 68.2% | Activity (Klebsiella pneumoniae [19]): 2.3% | Activity (Klebsiella pneumoniae [20]): 29.5% | MIC50 (Proteus mirabilis [21]): 0.03 µg/mL (≈ 0.0624 µM) | MIC90 (Proteus mirabilis [21]): 0.06 µg/mL (≈ 0.125 µM) | MIC (Proteus mirabilis [22]): 1 µg/mL (≈ 2.08 µM) | MIC50 (Pseudomonas aeruginosa [23]): 4 µg/mL (≈ 8.32 µM) | MIC90 (Pseudomonas aeruginosa [23]): 16 µg/mL (≈ 33.3 µM) | MIC50 (Pseudomonas aeruginosa [24]): 4 µg/mL (≈ 8.32 µM) | MIC90 (Pseudomonas aeruginosa [24]): 16 µg/mL (≈ 33.3 µM) | Activity (Proteus mirabilis [25]): 99.7% | Activity (Proteus mirabilis [26]): 0.2% | Activity (Proteus mirabilis [27]): 100% | Activity (Proteus mirabilis [28]): 0% | MIC50 (Citrobacter [29]): 0.03 µg/mL (≈ 0.0624 µM) | MIC90 (Citrobacter [29]): 0.06 µg/mL (≈ 0.125 µM) | MIC50 (Citrobacter [30]): 1 µg/mL (≈ 2.08 µM) | MIC90 (Citrobacter [30]): 2 µg/mL (≈ 4.16 µM) | Activity (Citrobacter [31]): 99.6% | Activity (Citrobacter [32]): 0.2% | Activity (Citrobacter [33]): 100% | Activity (Citrobacter [34]): 0% | MIC50 (Serratia marcescens [35]): 4 µg/mL (≈ 8.32 µM) | MIC90 (Serratia marcescens [35]): 16 µg/mL (≈ 33.3 µM) | Activity (Serratia marcescens [36]): 100% | Activity (Serratia marcescens [37]): 0% | Activity (Serratia marcescens [38]): 80% | Activity (Serratia marcescens [39]): 10% | MIC50 (Pseudomonas aeruginosa [40]): 2 µg/mL (≈ 4.16 µM) | MIC90 (Pseudomonas aeruginosa [40]): 8 µg/mL (≈ 16.6 µM) | MIC50 (Pseudomonas aeruginosa [41]): 8 µg/mL (≈ 16.6 µM) | MIC90 (Pseudomonas aeruginosa [41]): 32 µg/mL (≈ 66.6 µM) | Activity (Pseudomonas aeruginosa [42]): 95.2% | Activity (Pseudomonas aeruginosa [43]): 3.8% | Activity (Pseudomonas aeruginosa [44]): 1% | Activity (Pseudomonas aeruginosa [45]): 25.5% | Activity (Pseudomonas aeruginosa [46]): 48.2% | Activity (Pseudomonas aeruginosa [47]): 26.4% | Activity (Pseudomonas aeruginosa [48]): 90.7% | Activity (Pseudomonas aeruginosa [49]): 7% | Activity (Pseudomonas aeruginosa [50]): 2.2% | Activity (Pseudomonas aeruginosa [51]): 72.5% | Activity (Pseudomonas aeruginosa [52]): 16.9% | Activity (Pseudomonas aeruginosa [53]): 10.6% | MIC50 (Acinetobacter [54]): 4 µg/mL (≈ 8.32 µM) | MIC90 (Acinetobacter [54]): 32 µg/mL (≈ 66.6 µM) | MIC50 (Acinetobacter [55]): 32 µg/mL (≈ 66.6 µM) | MIC90 (Acinetobacter [55]): > 32 µg/mL | Activity (Acinetobacter [56]): 73.1% | Activity (Acinetobacter [57]): 11.8% | Activity (Acinetobacter [58]): 15.1% | Activity (Acinetobacter [59]): 2% | Activity (Acinetobacter [60]): 33.3% | Activity (Acinetobacter [61]): 64.7% | Activity (Pseudomonas aeruginosa [62]): 8.2% | Activity (Pseudomonas aeruginosa [63]): 86.8% | Activity (Pseudomonas aeruginosa [64]): 6.5% | Activity (Pseudomonas aeruginosa [65]): 79.9% | Activity (Pseudomonas aeruginosa [66]): 13.7% | Activity (Pseudomonas aeruginosa [67]): 5.1%
